What all share (assay type): functional
In one experiment the test system is Nakaseomyces glabratus. In words: Antifungal activity against Clinical isolate Candida glabrata assessed as inhibition of visible growth.
The test system of another experiment is Pichia kudriavzevii. In words: Antifungal activity against Candida krusei AS 2.1045 assessed as inhibition of visible growth.
Experiment [1] concerns Candida albicans. In words: Antifungal activity against Candida albicans SC 5314 assessed as inhibition of visible growth.
A further experiment deals with Candida parapsilosis. In words: Antifungal activity against Candida parapsilosis GIM 2.190 assessed as inhibition of visible growth. The following applies: Lodderomyces parapsilosis.
In a further experiment the test system is Cryptococcus neoformans. In words: Antifungal activity against Cryptococcus neoformans CGMCC 2.3161 assessed as inhibition of visible growth.
For experiment [2], the system named is Candida albicans. In words: Antifungal activity against Candida albicans CPCC 400616 assessed as inhibition of visible growth.
The subject of another experiment is Candida tropicalis. In words: Antifungal activity against Candida tropicalis CGMCC 2.3739 assessed as inhibition of visible growth.
Another experiment has as its system Aspergillus fumigatus. In words: Antifungal activity against Aspergillus fumigatus CGMCC 3.7795 assessed as inhibition of visible growth.

We go through 9 compounds from ChEMBL document CHEMBL6182926, “Design, Synthesis, and Biological Activity Evaluation of Deuterated Diphenyl Azole Alcohol-Based CYP51 Inhibitors” (J Med Chem, 2025).

As usually defined, the MIC80 is an inhibitory concentration at the 80% level, which refers to growth in some studies and to a panel of isolates in others.

In brackets after ≈: the same amount, converted by molar mass. Where only a bound is given, the exact number is not on record here.

With `[2H]C([2H])([2H])N(Cc1ccc(-c2ccc(OC(F)(F)F)cc2)nc1)[C@H](C)[C@](O)(Cn1cncn1)c1ccc(F)cc1F`, the MIC80 came to 0.012 µg/mL (≈ 0.0224 µM) in the experiment on Nakaseomyces glabratus; 0.012 µg/mL (≈ 0.0224 µM) in the experiment on Pichia kudriavzevii; 0.006 µg/mL (≈ 0.0112 µM) in the experiment with Candida albicans [1]; 0.006 µg/mL (≈ 0.0112 µM) in the experiment with Candida parapsilosis; 0.012 µg/mL (≈ 0.0224 µM) in the experiment with Cryptococcus neoformans; 0.012 µg/mL (≈ 0.0224 µM) in the experiment on Candida albicans [2]. In addition, the MIC80 in the experiment on Candida tropicalis came out at 0.012 µg/mL (≈ 0.0224 µM); in the experiment on Aspergillus fumigatus, 0.025 µg/mL (≈ 0.0466 µM).

In the case of `[2H]C([2H])([2H])N(Cc1ccc(-c2ccc(C(F)(F)F)cc2)cc1F)[C@H](C)[C@](O)(Cn1cncn1)c1ccc(F)cc1F`, the MIC80 in the experiment with Nakaseomyces glabratus was 0.025 µg/mL (≈ 0.0465 µM); in the experiment with Pichia kudriavzevii it was 0.05 µg/mL (≈ 0.093 µM); in the experiment on Candida albicans [1] it was 0.012 µg/mL (≈ 0.0223 µM); with Candida parapsilosis, 0.012 µg/mL (≈ 0.0223 µM); in the experiment on Cryptococcus neoformans, 0.025 µg/mL (≈ 0.0465 µM); with Candida albicans [2], 0.012 µg/mL (≈ 0.0223 µM). Further, the MIC80 in the experiment on Candida tropicalis was found to be 0.012 µg/mL (≈ 0.0223 µM); with Aspergillus fumigatus, 0.05 µg/mL (≈ 0.093 µM).

Turning to `O[C@@](Cn1cnnn1)(c1ccc(F)cc1F)C(F)(F)c1ccc(-c2ccc(OCC(F)(F)F)cc2)cn1` [OTESECONAZOLE], the MIC80 in the experiment on Nakaseomyces glabratus was determined as 0.1 µg/mL (≈ 0.19 µM); in the experiment on Pichia kudriavzevii, 0.1 µg/mL (≈ 0.19 µM); in the experiment on Candida albicans [1], 0.006 µg/mL (≈ 0.0114 µM); in the experiment with Candida parapsilosis it was 0.006 µg/mL (≈ 0.0114 µM); in the experiment on Cryptococcus neoformans it was 0.012 µg/mL (≈ 0.0228 µM); in the experiment with Candida albicans [2] it was 0.006 µg/mL (≈ 0.0114 µM). For the same compound, the figures for the MIC80 in the experiment with Candida tropicalis and with Aspergillus fumigatus were 0.006 µg/mL (≈ 0.0114 µM) and more than 64 µg/mL, respectively.

In the case of `[2H]C([2H])([2H])N(Cc1ccc(-c2ccc(Cl)c(F)c2)nc1)[C@H](C)[C@](O)(Cn1cncn1)c1ccc(F)cc1F`, the MIC80 with Nakaseomyces glabratus came out at 0.012 µg/mL (≈ 0.0238 µM); in the experiment on Pichia kudriavzevii it was 0.012 µg/mL (≈ 0.0238 µM); in the experiment on Candida albicans [1] it was 0.012 µg/mL (≈ 0.0238 µM); in the experiment with Candida parapsilosis, 0.006 µg/mL (≈ 0.0119 µM); in the experiment on Cryptococcus neoformans, 0.012 µg/mL (≈ 0.0238 µM); in the experiment on Candida albicans [2] it was 0.012 µg/mL (≈ 0.0238 µM). Further, the values for the MIC80 with Candida tropicalis and in the experiment with Aspergillus fumigatus were 0.006 µg/mL (≈ 0.0119 µM) and 0.025 µg/mL (≈ 0.0495 µM), respectively.

For the compound `[2H]C([2H])([2H])N(Cc1ccc(-c2ccc(OC(F)(F)F)cc2)cc1F)[C@H](C)[C@](O)(Cn1cncn1)c1ccc(F)cc1F`, the MIC80 in the experiment on Nakaseomyces glabratus stood at 0.025 µg/mL (≈ 0.0452 µM); with Pichia kudriavzevii it was 0.05 µg/mL (≈ 0.0903 µM); in the experiment on Candida albicans [1], 0.012 µg/mL (≈ 0.0217 µM); in the experiment on Candida parapsilosis, 0.012 µg/mL (≈ 0.0217 µM); in the experiment with Cryptococcus neoformans, 0.025 µg/mL (≈ 0.0452 µM); with Candida albicans [2], 0.012 µg/mL (≈ 0.0217 µM). The MIC80 is 0.012 µg/mL (≈ 0.0217 µM) in the experiment with Candida tropicalis and 0.05 µg/mL (≈ 0.0903 µM) in the experiment on Aspergillus fumigatus.

Consider `[2H]C([2H])([2H])N(Cc1ccc(-c2ccc(Cl)cc2)cn1)[C@H](C)[C@](O)(Cn1cncn1)c1ccc(F)cc1F`, for which the MIC80 with Nakaseomyces glabratus stood at 0.025 µg/mL (≈ 0.0513 µM); in the experiment with Pichia kudriavzevii, 0.012 µg/mL (≈ 0.0246 µM); in the experiment on Candida albicans [1], 0.006 µg/mL (≈ 0.0123 µM); in the experiment on Candida parapsilosis, 0.006 µg/mL (≈ 0.0123 µM); with Cryptococcus neoformans, 0.012 µg/mL (≈ 0.0246 µM); in the experiment on Candida albicans [2] it was 0.006 µg/mL (≈ 0.0123 µM). Besides, the MIC80 was 0.006 µg/mL (≈ 0.0123 µM) in the experiment on Candida tropicalis and 0.05 µg/mL (≈ 0.103 µM) in the experiment on Aspergillus fumigatus.

In the case of `[2H]C([2H])([2H])N(Cc1ccc(-c2ccc(Cl)cc2F)cc1)[C@H](C)[C@](O)(Cn1cncn1)c1ccc(F)cc1F`, the MIC80 in the experiment with Nakaseomyces glabratus came out at 0.025 µg/mL (≈ 0.0496 µM); in the experiment on Pichia kudriavzevii it was 0.012 µg/mL (≈ 0.0238 µM); in the experiment with Candida albicans [1] it was 0.006 µg/mL (≈ 0.0119 µM); with Candida parapsilosis it was 0.006 µg/mL (≈ 0.0119 µM); in the experiment on Cryptococcus neoformans it was 0.012 µg/mL (≈ 0.0238 µM); in the experiment on Candida albicans [2] it was 0.006 µg/mL (≈ 0.0119 µM). For the same compound, the MIC80 amounted to 0.006 µg/mL (≈ 0.0119 µM) in the experiment on Candida tropicalis and 0.012 µg/mL (≈ 0.0238 µM) with Aspergillus fumigatus.

In the case of `[2H]C([2H])([2H])N(Cc1ccc(-c2ccc(Cl)cc2)c(F)c1)[C@H](C)[C@](O)(Cn1cncn1)c1ccc(F)cc1F`, the MIC80 in the experiment with Nakaseomyces glabratus came out at 0.025 µg/mL (≈ 0.0496 µM); with Pichia kudriavzevii, 0.012 µg/mL (≈ 0.0238 µM); in the experiment with Candida albicans [1], 0.006 µg/mL (≈ 0.0119 µM); with Candida parapsilosis it was 0.006 µg/mL (≈ 0.0119 µM); in the experiment with Cryptococcus neoformans it was 0.012 µg/mL (≈ 0.0238 µM); in the experiment on Candida albicans [2] it was 0.006 µg/mL (≈ 0.0119 µM). In addition, the MIC80 came to 0.006 µg/mL (≈ 0.0119 µM) in the experiment with Candida tropicalis and 0.025 µg/mL (≈ 0.0496 µM) with Aspergillus fumigatus.

As to `[2H]C([2H])([2H])N(Cc1ccc(-c2ccc(C(F)(F)F)cc2)nc1)[C@H](C)[C@](O)(Cn1cncn1)c1ccc(F)cc1F`, the MIC80 was found to be 0.012 µg/mL (≈ 0.0231 µM) in the experiment with Nakaseomyces glabratus; 0.012 µg/mL (≈ 0.0231 µM) in the experiment with Pichia kudriavzevii; 0.012 µg/mL (≈ 0.0231 µM) with Candida albicans [1]; 0.006 µg/mL (≈ 0.0115 µM) in the experiment with Candida parapsilosis; 0.012 µg/mL (≈ 0.0231 µM) with Cryptococcus neoformans; 0.006 µg/mL (≈ 0.0115 µM) in the experiment with Candida albicans [2]. The MIC80 in the experiment on Candida tropicalis turned out to be 0.012 µg/mL (≈ 0.0231 µM); with Aspergillus fumigatus it was 0.025 µg/mL (≈ 0.048 µM).
